Source: paper PMC10279719 (Nature Communications, 2023)

Assays:
14-3-3ε = molecular target: T1, 14-3-3ε (Homo sapiens, UniProt P62258); experiment: SPR, PEAK tandem peptides binding to immobilised 14-3-3ε; conditions: peptide analyte over amine-coupled 14-3-3ε (CM5); Biacore S200, HBS-TP pH 7.4, 20 °C; steady-state 1:1 fit; mean ± S.E.M.; read-out: SPR KD, 14-3-3ε (epsilon)
T1 construct: 14-3-3ε (UniProt P62258-1; residues 1–255); 8-His tag with TEV protease cleavage site (N); made in house; host or cells: E. coli C41 (DE3)
T1 sequence (P62258 1-255): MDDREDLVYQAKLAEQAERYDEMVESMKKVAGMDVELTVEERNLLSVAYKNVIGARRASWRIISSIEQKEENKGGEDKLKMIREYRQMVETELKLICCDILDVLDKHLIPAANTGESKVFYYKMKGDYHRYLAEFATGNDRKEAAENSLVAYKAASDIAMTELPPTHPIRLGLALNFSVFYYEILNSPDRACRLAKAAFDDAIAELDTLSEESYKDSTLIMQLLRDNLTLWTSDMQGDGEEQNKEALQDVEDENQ
Experimental: Purified […]3 was diluted to 5 μg ml^-1 in 10 mM sodium acetate pH 4.0 and amine coupled at 25 °C to a Series S CM5 sensor chip, in HBS-N running buffer (20 mM HEPES pH 7.4, 150 mM NaCl) to a final immobilization level of 1100-1400 response units (RU), followed by surface deactivation using 1 M ethanolamine. A blank activation/deactivation was used for the reference surface. […] PEAK PRM peptides: […] Samples were injected in a multi-cycle run (flow rate 30 μl min^-1, contact time of 60 s, dissociation 120 s) without regeneration. Sensorgrams were double referenced, and steady-state binding data fitted using a 1:1 binding model using Biacore S200 Evaluation Software (Cytiva, v. 1.1). […] Representative sensorgrams and fitted dissociation constant (KD) values, depicted as mean ± S.E.M.

14-3-3η = molecular target: T2, 14-3-3η (Homo sapiens, UniProt Q04917); experiment: SPR, PEAK tandem peptides binding to immobilised 14-3-3η; conditions: peptide analyte over amine-coupled 14-3-3η (CM5); Biacore S200, HBS-TP pH 7.4, 20 °C; steady-state 1:1 fit; mean ± S.E.M.; read-out: SPR KD, 14-3-3η (eta)
T2 construct: 14-3-3η (UniProt Q04917-1; residues 1–246); 8-His tag with TEV protease cleavage site (N); made in house; host or cells: E. coli C41 (DE3)
T2 sequence (Q04917 1-246): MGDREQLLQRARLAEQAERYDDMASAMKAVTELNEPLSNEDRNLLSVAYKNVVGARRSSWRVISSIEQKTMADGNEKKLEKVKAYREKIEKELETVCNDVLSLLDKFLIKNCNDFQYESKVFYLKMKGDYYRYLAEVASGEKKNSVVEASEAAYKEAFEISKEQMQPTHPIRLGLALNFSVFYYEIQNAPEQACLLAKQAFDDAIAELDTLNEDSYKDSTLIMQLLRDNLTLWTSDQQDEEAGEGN
Experimental: (§1) Purified […]3 was diluted to 5 μg ml^-1 in 10 mM sodium acetate pH 4.0 and amine coupled at 25 °C to a Series S CM5 sensor chip, in HBS-N running buffer (20 mM HEPES pH 7.4, 150 mM NaCl) to a final immobilization level of 1100-1400 response units (RU), followed by surface deactivation using 1 M ethanolamine. A blank activation/deactivation was used for the reference surface. […] Samples were injected in a multi-cycle run (flow rate 30 μl min^-1, contact time of 60 s, dissociation 120 s) without regeneration. Sensorgrams were double referenced, and steady-state binding data fitted using a 1:1 binding model using Biacore S200 Evaluation Software (Cytiva, v. 1.1). […] Representative sensorgrams and fitted dissociation constant (KD) values, depicted as mean ± S.E.M.

14-3-3γ = molecular target: T3, 14-3-3γ (Homo sapiens, UniProt P61981); experiment: SPR, PEAK peptides binding to immobilised 14-3-3γ; conditions: peptide analyte over amine-coupled 14-3-3γ (CM5); Biacore S200, HBS-TP pH 7.4, 20 °C; steady-state 1:1 fit; mean ± S.E.M.
T3 construct: 14-3-3γ (UniProt P61981-1; residues 1–247); 8-His tag with TEV protease cleavage site (N); made in house; host or cells: E. coli C41 (DE3)
T3 sequence (P61981 1-247): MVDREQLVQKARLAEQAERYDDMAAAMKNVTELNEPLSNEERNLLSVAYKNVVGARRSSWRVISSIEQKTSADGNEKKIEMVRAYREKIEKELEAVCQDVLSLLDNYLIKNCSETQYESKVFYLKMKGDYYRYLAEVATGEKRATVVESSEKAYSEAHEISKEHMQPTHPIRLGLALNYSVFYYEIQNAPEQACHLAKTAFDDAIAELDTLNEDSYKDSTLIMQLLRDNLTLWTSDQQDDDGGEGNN
Experimental: as §1

CrkII^NSH3 [1] = molecular target: T4, CrkII^NSH3 (Homo sapiens, UniProt P46108); experiment: SPR, CrkII NSH3 binding to immobilised PEAK proteins; conditions: read-out: CrkII NSH3 SPR KD; interactor as analyte over biotinylated PEAK protein captured with biotin CAPture kit; Biacore 8K+, HBS-TP, 20 °C; steady-state fit; mean ± SD (N = 2); read-out: CrkII-SH2 SPR KD
T4 construct: CrkII^NSH3; UniProt P46108-1, residues 134–191; 8-His tag with TEV protease cleavage site (N); made in house; host or cells: E. coli C41 (DE3)
T4 sequence (P46108 134-191): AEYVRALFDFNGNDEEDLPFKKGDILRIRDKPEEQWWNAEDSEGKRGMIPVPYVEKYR
Experimental: (§2) SPR binding studies of PEAK PRM peptides to CrkII^NSH3 were performed using a Biacore S200 Instrument (Cytiva). Purified CrkII^NSH3 was diluted to 5 µg ml^−1 in 10 mM sodium acetate pH 4.0 and amine coupled at 25 °C to a Series S CM5 sensor chip, in HBS-N running buffer (20 mM HEPES pH 7.4, 150 mM NaCl) to a final immobilization level of 1100–1400 response units (RU), followed by surface deactivation using 1 M ethanolamine. A blank activation/deactivation was used for the reference surface. Peptide binding studies were performed at 20 °C in HBS-TP running buffer (20 mM HEPES pH 7.4, 150 mM NaCl, 1 mM TCEP, 0.005% (v/v) Tween-P20). […] Peptide stocks were further diluted to in running buffer to 10 or 20 µM and prepared as a 11-point concentration series (2-fold serial dilution, […] for PEAK PRM peptides, or 20 µM–20 nM for PEAK tandem motif peptides). Samples were injected in a multi-cycle run (flow rate 30 µl min^−1, contact time of 60 s, dissociation 120 s) without regeneration. Sensorgrams were double referenced, and steady-state binding data fitted using a 1:1 binding model using Biacore S200 Evaluation Software (Cytiva, v. 1.1).
(§3) SPR binding studies of PEAK proteins to full length CrkII/Grb2 and sub-domains were performed using a Biacore 8K+ Instrument (Cytiva) and analyzed using Biacore Insight Evaluation Software (v. 3.0.12.15655). […] Binding studies and steady-state data analysis were performed as described for CrkII^NSH3 with the inclusion of an additional surface regeneration step (60 s injection of 1 M NaCl) between cycles.

14-3-3ɣ = experiment: SPR, 14-3-3ɣ binding to immobilised PEAK proteins; design: species or system human; conditions: 14-3-3ɣ analyte 0.46–1000 nM, multi-cycle, over immobilised biotinylated PEAK protein; Biacore 8K+, 20 °C; KD only an estimate (bivalent analyte model); N = 3
Experimental: PEAK proteins and adapters proteins (full length or individual domains) were biotinylated using EZ-Link™ NHS-PEG4-Biotin (Thermo Fisher) at a 1:1 molar ratio (100 µM) for 1 h at room temperature, then excess biotin was removed by buffer exchange using a Zeba™ Spin Desalting Column (Thermo Fisher) into HBS-T buffer (20 mM HEPES pH 7.4, 150 mM NaCl, 1 mM TCEP).
SPR binding studies of PEAK proteins to full length CrkII/Grb2 and sub-domains were performed using a Biacore 8K+ Instrument (Cytiva) and analyzed using Biacore Insight Evaluation Software (v. 3.0.12.15655). […] Biotinylated PEAK proteins (with or without Src phosphorylation; 500 nM in HBS-TP) were immobilized using a biotin CAPture kit (Cytiva) in HBS-TP running buffer at 20 °C. Binding studies and steady-state data analysis were performed as described for CrkII^NSH3 with the inclusion of an additional surface regeneration step (60 s injection of 1 M NaCl) between cycles. For Grb2^FL, Grb2^SH2, CrkII^SH2, CrkII^FL monomer and CrkII^FL dimer, to reduce nonspecific interactions the HBS-TP running buffer was supplemented with additional NaCl to a final concentration of 500 mM.
Binding studies for 14-3-3ɣ were undertaken in the same way in multi cycle mode (8 point, 3-fold serial dilution series, 0.46–1000 nM, 60 s contact time, 300 s dissociation).

CrkII^SH2 = molecular target: T5, CrkII^SH2 (Homo sapiens, UniProt P46108); experiment: SPR, CrkII SH2 binding to immobilised PEAK proteins; conditions: interactor as analyte over biotinylated PEAK protein (biotin CAPture); Biacore 8K+, HBS-TP with 500 mM NaCl, 20 °C; steady-state fit; mean ± S.E.M. (N = 3)
T5 construct: CrkII^SH2; UniProt P46108-1, residues 6–120; 8-His tag with TEV protease cleavage site (N); made in house; host or cells: E. coli C41 (DE3)
T5 sequence (P46108 6-120): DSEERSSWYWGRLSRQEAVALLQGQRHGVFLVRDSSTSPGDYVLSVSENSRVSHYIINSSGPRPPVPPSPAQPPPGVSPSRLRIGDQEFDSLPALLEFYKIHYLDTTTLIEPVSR
Experimental: as §2, §3

CrkII^NSH3 [2] = molecular target: T4, CrkII^NSH3; experiment: ITC, CrkII NSH3 titrated into PEAK3 tandem peptides (binary) or peptide:14-3-3γ complexes (ternary); format: binding; conditions: individual run, repeat 1, CrkII N-SH3 400 µM into the labelled complex 16.8 µM (Titrations 10, 12, 16)
Experimental: ITC binding experiments were conducted using a MicroCal iTC200 instrument (Malvern Instruments). Titrations were conducted at 25 °C in reverse mode (peptide in cell, protein in syringe) and consisted of 19 injections of 2 μl […] at a rate of 2 s μl^−1 at 90 s time intervals, whilst stirring at 1000 rpm. An initial injection of 0.4 μl protein was made and discarded during data analysis. Proteins (14-3-3ɣ or CrkII^NSH3) were first dialyzed overnight at 4 °C into ITC buffer (20 mM HEPES pH 7.4, 150 mM NaCl, 1 mM TCEP), filtered and degassed under vacuum. […] Following the first titration, excess solution was removed from the cell, and the syringe was washed and dried. […] All data were fitted to a single binding site model to obtain the stoichiometry (N), dissociation constant (KD) and the enthalpy of binding (ΔH), using MicroCal PEAQ-ITC Analysis software (v.1.41).

## CC[C@H](C)[C@H](NC(=O)[C@H](CCCCN)NC(=O)[C@H](CCCCN)NC(=O)[C@@H]1CCCN1C(=O)[C@H](CC(C)C)NC(=O)[C@@H]1CCCN1C(=O)[C@@H]1CCCN1C(=O)[C@@H]1CCCN1C(=O)[C@H](CC(C)C)NC(=O)[C@@H]1CCCN1C(C)=O)C(=O)N[C@@H](CC(C)C)C(=O)N[C@H](C(=O)N[C@@H](CCCNC(=N)N)C(=O)N[C@H](C(=O)N[C@@H](CCC(N)=O)C(=O)N[C@@H](COP(=O)(O)O)C(=O)N[C@@H](CC(C)C)C(=O)N1CCC[C@H]1C(=O)N[C@H](C(=O)N[C@@H](CCCNC(=N)N)C(=O)N[C@@H](CCCNC(=N)N)C(N)=O)[C@@H](C)O)[C@@H](C)O)[C@@H](C)O (single isomer, unassigned) [PEAK3^tandem-pS69]
14-3-3ε
  Kd: 0.78 µM

## CC[C@H](C)[C@H](NC(=O)[C@H](CCCCN)NC(=O)[C@H](CCCCN)NC(=O)[C@H](CCC(N)=O)NC(=O)[C@@H]1CCCN1C(=O)[C@H](CC(C)C)NC(=O)[C@@H]1CCCN1C(=O)[C@@H]1CCCN1C(=O)[C@@H]1CCCN1C(C)=O)C(=O)N[C@H](C(=O)N[C@@H](CO)C(=O)N[C@@H](CCCNC(=N)N)C(=O)N[C@@H](C)C(=O)N[C@@H](C)C(=O)N[C@@H](COP(=O)(O)O)C(=O)N[C@@H](CO)C(=O)N1CCC[C@H]1C(=O)N[C@@H](CC(=O)O)C(=O)NCC(=O)N[C@@H](Cc1ccccc1)C(N)=O)C(C)C (single isomer, unassigned) [PEAK2^tandem-pS826]
14-3-3ε
  Kd: 7.4 µM
14-3-3η
  Kd: 1.9 µM

## CC[C@H](C)[C@H](NC(=O)[C@H](CCCCN)NC(=O)[C@H](CCCCN)NC(=O)[C@@H]1CCCN1C(=O)[C@H](CC(C)C)NC(=O)[C@@H]1CCCN1C(=O)[C@@H]1CCCN1C(=O)[C@@H]1CCCN1C(=O)[C@H](CC(C)C)NC(=O)[C@@H]1CCCN1C(C)=O)C(=O)N[C@@H](CC(C)C)C(=O)N[C@H](C(=O)N[C@@H](CCCNC(=N)N)C(N)=O)[C@@H](C)O (single isomer, unassigned) [PEAK3^54–66]
14-3-3γ
  SPR KD, 14-3-3γ (gamma): No binding

## PEAK3-FL E.coli: full length human PEAK3 (1–473) purified from E. coli, no bound 14-3-3
CrkII^NSH3 [1]
  Kd: 9.6 µM
14-3-3ɣ
  SPR KD, 14-3-3ɣ: No binding
CrkII^SH2
  SPR KD, CrkII-SH2: No binding

## CC[C@H](C)[C@H](NC(=O)[C@H](CCCCN)NC(=O)[C@H](CCCCN)NC(=O)[C@@H]1CCCN1C(=O)[C@H](CC(C)C)NC(=O)[C@@H]1CCCN1C(=O)[C@@H]1CCCN1C(=O)[C@@H]1CCCN1C(=O)[C@H](CC(C)C)NC(=O)[C@@H]1CCCN1C(C)=O)C(=O)N[C@@H](CC(C)C)C(=O)N[C@H](C(=O)N[C@@H](CCCNC(=N)N)C(=O)N[C@H](C(=O)N[C@@H](CCC(N)=O)C(=O)N[C@@H](COP(=O)(O)O)C(=O)N[C@@H](CC(C)C)C(=O)N1CCC[C@H]1C(=O)N[C@H](C(=O)N[C@@H](CCCNC(=N)N)C(=O)N[C@@H](CCCNC(=N)N)C(N)=O)[C@@H](C)O)[C@@H](C)O)[C@@H](C)O (single isomer, unassigned) [PEAK3 tandem-pS69 : 14-3-3γ (K50E)]
CrkII^NSH3 [2]
  ITC -T∆S: -3.23 kcal/mol
  ITC N (sites): 0.69
  ITC ∆G: -7.36 kcal/mol
  ITC ∆H: -4.16 kcal/mol
